Tests used:
Assay type in all cases: in vivo
bulrush [1] = assay: Test Example 1: herbicidal effects in preemergence treatment under submerged conditions; conditions: dose 2.52 g/a
Procedure, shortened: (§1)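 Alluvial soil was flooded to 4 cm, sown with barnyardgrass, bulrush and ducksalad, and planted with 2.5-leaf rice seedlings. On the seeding day, water-diluted emulsifiable concentrates were applied to the water surface at set doses (g/a). After three weeks in a 25 to 30° C. greenhouse, mortality was scored 0–5.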

barnyardgrass [2] = assay: as above; conditions: dose 2.52 g/a
Procedure, shortened: as §1

ducksalad [3] = assay: as above; conditions: dose 2.52 g/a
Procedure, shortened: as §1

bulrush [4] = assay: Test Example 2: herbicidal effects during the vegetation period under submerged conditions; conditions: treatment during the vegetation period under submerged conditions; dose 2.52 g/a
Procedure, shortened: (§2)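 Barnyardgrass, bulrush and ducksalad were co-sown in alluvial soil flooded to 4 cm and grown in a greenhouse at 25 to 30° C. At the 1- or 2-leaf stage, water-diluted emulsifiable concentrates went onto the water surface at set doses (g/a). Herbicidal effect was scored three weeks later on a graded scale.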

barnyardgrass [5] = assay: as above; conditions: treatment during the vegetation period under submerged conditions; dose 2.52 g/a
Procedure, shortened: as §2

ducksalad [6] = assay: as above; conditions: treatment during the vegetation period under submerged conditions; dose 2.52 g/a
Procedure, shortened: as §2

common ragweed [7] = assay: Test Example 3: herbicidal effects in soil treatment; conditions: dose 3.2 g/a
Procedure, shortened: (§3)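 Seeds were sown in sterilized diluvial soil and covered with about 1.5 cm of soil. Compounds, formulated as emulsifiable concentrates and diluted with water, were sprayed evenly over the soil surface at set doses in g/a. Herbicidal effect was scored on a rating scale three weeks later.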

common lambsquater [8] = assay: as above; conditions: dose 3.2 g/a
Procedure, shortened: as §3

giant foxtail [9] = assay: as above; conditions: dose 3.2 g/a
Procedure, shortened: as §3

posumbu knotweed [10] = assay: as above; conditions: dose 3.2 g/a
Procedure, shortened: as §3

barnyardgrass [11] = assay: as above; conditions: dose 3.2 g/a
Procedure, shortened: as §3

beadstraw [12] = assay: as above; conditions: dose 3.2 g/a
Procedure, shortened: as §3

water foxtail [13] = assay: as above; conditions: dose 3.2 g/a
Procedure, shortened: as §3

wild oat [14] = assay: as above; conditions: dose 3.2 g/a
Procedure, shortened: as §3

common chickweed [15] = assay: as above; conditions: dose 3.2 g/a
Procedure, shortened: as §3

Italian ryegrass [16] = assay: as above; conditions: dose 3.2 g/a
Procedure, shortened: as §3

velvetleaf [17] = assay: as above; conditions: dose 3.2 g/a
Procedure, shortened: as §3

redroot pigweed [18] = assay: as above; conditions: dose 3.2 g/a
Procedure, shortened: as §3

large crabgrass [19] = assay: as above; conditions: dose 3.2 g/a
Procedure, shortened: as §3

transplanted rice = assay: Test Example 1: preemergence treatment under submerged conditions, effect on crop; conditions: dose 2.52 g/a
Procedure, shortened: as §1

common ragweed [20] = assay: Test Example 4: herbicidal effect in foliage treatment; conditions: dose 3.2 g/a, three weeks after the application
Procedure, shortened: (§4)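 Post-emergence foliar spray of water-diluted emulsifiable concentrate at predetermined doses (g per are), applied to plants 14 days after sowing in sterile diluvial soil (greenhouse, 25 to 30° C). Visual scale rating of effect taken 3 weeks later.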

common lambsquater [21] = assay: as above; conditions: dose 3.2 g/a, three weeks after the application
Procedure, shortened: as §4

giant foxtail [22] = assay: as above; conditions: dose 3.2 g/a, three weeks after the application
Procedure, shortened: as §4

posumbu knotweed [23] = assay: as above; conditions: dose 3.2 g/a, three weeks after the application
Procedure, shortened: as §4

barnyardgrass [24] = assay: as above; conditions: dose 3.2 g/a, three weeks after the application
Procedure, shortened: as §4

beadstraw [25] = assay: as above; conditions: dose 3.2 g/a, three weeks after the application
Procedure, shortened: as §4

water foxtail [26] = assay: as above; conditions: dose 3.2 g/a, three weeks after the application
Procedure, shortened: as §4

wild oat [27] = assay: as above; conditions: dose 3.2 g/a, three weeks after the application
Procedure, shortened: as §4

common chickweed [28] = assay: as above; conditions: dose 3.2 g/a, three weeks after the application
Procedure, shortened: as §4

Italian ryegrass [29] = assay: as above; conditions: dose 3.2 g/a, three weeks after the application
Procedure, shortened: as §4

velvetleaf [30] = assay: as above; conditions: dose 3.2 g/a, three weeks after the application
Procedure, shortened: as §4

redroot pigweed [31] = assay: as above; conditions: dose 3.2 g/a, three weeks after the application
Procedure, shortened: as §4

large crabgrass [32] = assay: as above; conditions: dose 3.2 g/a, three weeks after the application
Procedure, shortened: as §4

| Compound | B: bulrush, herbicidal effect (evaluation scale 0-5) (bulrush [1]) | A: barnyardgrass, herbicidal effect (evaluation scale 0-5) (barnyardgrass [2]) | C: ducksalad, herbicidal effect (evaluation scale 0-5) (ducksalad [3]) | B: bulrush, herbicidal effect (evaluation scale 0-5) (bulrush [4]) | A: barnyardgrass, herbicidal effect (evaluation scale 0-5) (barnyardgrass [5]) | C: ducksalad, herbicidal effect (evaluation scale 0-5) (ducksalad [6]) | herbicidal effect, J: common ragweed (common ragweed [7]) | herbicidal effect, L: common lambsquater (common lambsquater [8]) | herbicidal effect, E: giant foxtail (giant foxtail [9]) | herbicidal effect, M: posumbu knotweed (posumbu knotweed [10]) | herbicidal effect, A: barnyardgrass (barnyardgrass [11]) | herbicidal effect, O: beadstraw (beadstraw [12]) | herbicidal effect, G: water foxtail (water foxtail [13]) | herbicidal effect, F: wild oat (wild oat [14]) | herbicidal effect, N: common chickweed (common chickweed [15]) | herbicidal effect, H: Italian ryegrass (Italian ryegrass [16]) | herbicidal effect, I: velvetleaf (velvetleaf [17]) | herbicidal effect, K: redroot pigweed (redroot pigweed [18]) | herbicidal effect, D: large crabgrass (large crabgrass [19]) | a: transplanted rice, effect on crop (evaluation scale 0-5) (transplanted rice) | also measured |
| --- | --- | --- | --- | --- | --- | --- | --- | --- | --- | --- | --- | --- | --- | --- | --- | --- | --- | --- | --- | --- | --- |
| CN1COCN(Cc2ccccc2NS(=O)(=O)C(F)(F)F)C1=O [IV-1] | 5 (mortality of 90% or above (nearly complete death)) | 5 (mortality of 90% or above (nearly complete death)) | 4 (mortality of at least 70% and less than 90%) | 5 (mortality of 90% or above (nearly complete death)) | 4 (mortality of at least 70% and less than 90%) | 4 (mortality of at least 70% and less than 90%) | 2 (mortality of at least 20% and less than 40%) | 0 (mortality of less than 5% (almost ineffective)) | 3 (mortality of at least 40% and less than 70%) | 0 (mortality of less than 5% (almost ineffective)) | 5 (mortality of 90% or above (nearly complete death)) | 0 (mortality of less than 5% (almost ineffective)) | 5 (mortality of 90% or above (nearly complete death)) | 0 (mortality of less than 5% (almost ineffective)) | 0 (mortality of less than 5% (almost ineffective)) | 0 (mortality of less than 5% (almost ineffective)) | 3 (mortality of at least 40% and less than 70%) | 0 (mortality of less than 5% (almost ineffective)) | 4 (mortality of at least 70% and less than 90%) | 0 (mortality of less than 5% (almost ineffective)) | J: common ragweed, herbicidal effect (common ragweed [20]): 1 (mortality of at least 5% and less than 20%); L: common lambsquater, herbicidal effect (common lambsquater [21]): 0 (mortality of less than 5% (almost ineffective)); E: giant foxtail, herbicidal effect (giant foxtail [22]): 3 (mortality of at least 40% and less than 70%); M: posumbu knotweed, herbicidal effect (posumbu knotweed [23]): 0 (mortality of less than 5% (almost ineffective)); A: barnyardgrass, herbicidal effect (barnyardgrass [24]): 4 (mortality of at least 70% and less than 90%); O: beadstraw, herbicidal effect (beadstraw [25]): 3 (mortality of at least 40% and less than 70%); G: water foxtail, herbicidal effect (water foxtail [26]): 5 (mortality of 90% or above (nearly complete death)); F: wild oat, herbicidal effect (wild oat [27]): 0 (mortality of less than 5% (almost ineffective)); N: common chickweed, herbicidal effect (common chickweed [28]): 1 (mortality of at least 5% and less than 20%); H: Italian ryegrass, herbicidal effect (Italian ryegrass [29]): 3 (mortality of at least 40% and less than 70%); I: velvetleaf, herbicidal effect (velvetleaf [30]): 5 (mortality of 90% or above (nearly complete death)); K: redroot pigweed, herbicidal effect (redroot pigweed [31]): 0 (mortality of less than 5% (almost ineffective)); D: large crabgrass, herbicidal effect (large crabgrass [32]): 4 (mortality of at least 70% and less than 90%) |
| CCOC(=O)N(c1ccccc1CN1COCN(C)C1=O)S(=O)(=O)C(F)(F)F [IV-2] | 5 (mortality of 90% or above (nearly complete death)) | 5 (mortality of 90% or above (nearly complete death)) | 3 (mortality of at least 40% and less than 70%) | 5 (mortality of 90% or above (nearly complete death)) | 5 (mortality of 90% or above (nearly complete death)) | 4 (mortality of at least 70% and less than 90%) | 0 (mortality of less than 5% (almost ineffective)) | 0 (mortality of less than 5% (almost ineffective)) | 4 (mortality of at least 70% and less than 90%) | 0 (mortality of less than 5% (almost ineffective)) | 5 (mortality of 90% or above (nearly complete death)) | 0 (mortality of less than 5% (almost ineffective)) | 5 (mortality of 90% or above (nearly complete death)) | 0 (mortality of less than 5% (almost ineffective)) | 0 (mortality of less than 5% (almost ineffective)) | 2 (mortality of at least 20% and less than 40%) | 2 (mortality of at least 20% and less than 40%) | 0 (mortality of less than 5% (almost ineffective)) | 5 (mortality of 90% or above (nearly complete death)) | 0 (mortality of less than 5% (almost ineffective)) | J: common ragweed, herbicidal effect (common ragweed [20]): 1 (mortality of at least 5% and less than 20%); L: common lambsquater, herbicidal effect (common lambsquater [21]): 0 (mortality of less than 5% (almost ineffective)); E: giant foxtail, herbicidal effect (giant foxtail [22]): 3 (mortality of at least 40% and less than 70%); M: posumbu knotweed, herbicidal effect (posumbu knotweed [23]): 0 (mortality of less than 5% (almost ineffective)); A: barnyardgrass, herbicidal effect (barnyardgrass [24]): 4 (mortality of at least 70% and less than 90%); O: beadstraw, herbicidal effect (beadstraw [25]): 0 (mortality of less than 5% (almost ineffective)); G: water foxtail, herbicidal effect (water foxtail [26]): 5 (mortality of 90% or above (nearly complete death)); F: wild oat, herbicidal effect (wild oat [27]): 0 (mortality of less than 5% (almost ineffective)); N: common chickweed, herbicidal effect (common chickweed [28]): 0 (mortality of less than 5% (almost ineffective)); H: Italian ryegrass, herbicidal effect (Italian ryegrass [29]): 0 (mortality of less than 5% (almost ineffective)); I: velvetleaf, herbicidal effect (velvetleaf [30]): 3 (mortality of at least 40% and less than 70%); K: redroot pigweed, herbicidal effect (redroot pigweed [31]): 0 (mortality of less than 5% (almost ineffective)); D: large crabgrass, herbicidal effect (large crabgrass [32]): 5 (mortality of 90% or above (nearly complete death)) |

Reference: US20120029187A1, “HALOALKYLSULFONANILIDE DERIVATIVE” (Nissan Chemical Industries, Ltd., priority 2009, published 2012)
